ChEMBL document CHEMBL4376834, “Discovery of 4H-Chromen-4-one Derivatives as a New Class of Selective Rho Kinase (ROCK) Inhibitors, which Showed Potent Activity in ex Vivo Diabetic Retinopathy Models” (J Med Chem, 2019)

Columns and labels:
[1] = target: Activin receptor type-1-like (Homo sapiens, UniProt P37023); assay: Inhibition of human recombinant ALK1 (142 to end residues) using casein as substrate incubated for 40 mins in presence of [gamma-33P]ATP by radiometric scintillation counting analysis
Sequence of Activin receptor type-1-like (P37023 whole entry): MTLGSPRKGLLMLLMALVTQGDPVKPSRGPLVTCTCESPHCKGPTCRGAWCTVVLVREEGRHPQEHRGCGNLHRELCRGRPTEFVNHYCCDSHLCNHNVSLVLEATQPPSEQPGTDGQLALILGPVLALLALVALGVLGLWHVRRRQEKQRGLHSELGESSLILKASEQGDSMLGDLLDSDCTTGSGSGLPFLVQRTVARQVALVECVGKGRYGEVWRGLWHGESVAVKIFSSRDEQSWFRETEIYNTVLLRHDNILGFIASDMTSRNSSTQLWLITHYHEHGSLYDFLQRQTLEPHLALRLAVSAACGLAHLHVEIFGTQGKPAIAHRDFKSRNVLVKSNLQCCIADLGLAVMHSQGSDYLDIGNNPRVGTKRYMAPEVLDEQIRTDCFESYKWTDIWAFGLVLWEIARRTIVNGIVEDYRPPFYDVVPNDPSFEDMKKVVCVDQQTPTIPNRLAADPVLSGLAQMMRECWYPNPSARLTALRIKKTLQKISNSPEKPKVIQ

[2] = target: Serine/threonine-protein kinase A-Raf (Homo sapiens, UniProt P10398); assay: Inhibition of human recombinant A-Raf (273 to end residues) using myelin as substrate incubated for 40 mins in presence of [gamma-33ATP] by radiometric scintillation counting analysis
[3] = target: Calcium/calmodulin-dependent protein kinase type 1G (Homo sapiens, UniProt Q96NX5); assay: Inhibition of recombinant full length human CaMK1gamma using KKLRRTLSFAEPG as substrate incubated for 40 mins in presence of [gamma-33ATP] by radiometric scintillation counting analysis
[4] = target: Calcium/calmodulin-dependent protein kinase type II subunit beta (Homo sapiens, UniProt Q13554); assay: Inhibition of recombinant human CaMK2beta (1 to 315 residues) using calmodulin a substrate incubated for 40 mins in presence of [gamma-33ATP] by radiometric scintillation counting analysis
[5] = target: Calcium/calmodulin-dependent protein kinase kinase 2 (Homo sapiens, UniProt Q96RR4, T85S); assay: Inhibition of recombinant full length human CaMKK2 T85S mutant using calmodulin as substrate incubated for 40 mins in presence of [gamma-33ATP] by radiometric scintillation counting analysis
[6] = target: Serine/threonine-protein kinase Chk2 (Homo sapiens, UniProt O96017); assay: Inhibition of recombinant human CHK2 (5 to end residues) using KKKVSRSGLYRSP as substrate incubated for 40 mins in presence of [gamma-33ATP] by radiometric scintillation counting analysis
[7] = target: Proto-oncogene tyrosine-protein kinase Src (Homo sapiens, UniProt P12931); assay: Inhibition of recombinant human C-Src using […] as substrate incubated 40 mins in presence of [gamma-33ATP] by radiometric scintillation counting analysis
[8] = target: Death-associated protein kinase 2 (Homo sapiens, UniProt Q9UIK4); assay: Inhibition of recombinant full length human DAPK2 using Calmodulin as substrate incubated 40 mins in presence of [gamma-33ATP] by radiometric scintillation counting analysis
[9] = target: Serine/threonine-protein kinase Nek6 (Homo sapiens, UniProt Q9HC98); assay: Inhibition of recombinant human NEK6 (2 to end residues) using FLAKSFGSPNRAYKK as substrate measured after 40 mins in presence of [gamma33P]ATP by radiometric scintillation counting analysis
[10] = target: NUAK family SNF1-like kinase 2 (Homo sapiens, UniProt Q9H093); assay: Inhibition of recombinant human full length NUAK2 using KKKVSRSGLYRSP as substrate measured after 40 mins in presence of [gamma33P]ATP by radiometric scintillation counting analysis
[11] = target: Myosin light chain kinase, smooth muscle (Homo sapiens, UniProt Q15746); assay: Inhibition of recombinant human MLCK (1425 to 1771 residues) using […] as substrate incubated for 40 mins in presence of [gamma-33ATP by radiometric scintillation counting analysis
[12] = target: Serine/threonine-protein kinase MRCK alpha (Homo sapiens, UniProt Q5VT25); assay: Inhibition of recombinant human MRCKalpha (1 to 473 residues) using KKRNRTLTV as substrate incubated for 40 mins in presence of [gamma-33ATP by radiometric scintillation counting analysis
Sequence of Serine/threonine-protein kinase MRCK alpha (Q5VT25 whole entry, the tested form may be a part): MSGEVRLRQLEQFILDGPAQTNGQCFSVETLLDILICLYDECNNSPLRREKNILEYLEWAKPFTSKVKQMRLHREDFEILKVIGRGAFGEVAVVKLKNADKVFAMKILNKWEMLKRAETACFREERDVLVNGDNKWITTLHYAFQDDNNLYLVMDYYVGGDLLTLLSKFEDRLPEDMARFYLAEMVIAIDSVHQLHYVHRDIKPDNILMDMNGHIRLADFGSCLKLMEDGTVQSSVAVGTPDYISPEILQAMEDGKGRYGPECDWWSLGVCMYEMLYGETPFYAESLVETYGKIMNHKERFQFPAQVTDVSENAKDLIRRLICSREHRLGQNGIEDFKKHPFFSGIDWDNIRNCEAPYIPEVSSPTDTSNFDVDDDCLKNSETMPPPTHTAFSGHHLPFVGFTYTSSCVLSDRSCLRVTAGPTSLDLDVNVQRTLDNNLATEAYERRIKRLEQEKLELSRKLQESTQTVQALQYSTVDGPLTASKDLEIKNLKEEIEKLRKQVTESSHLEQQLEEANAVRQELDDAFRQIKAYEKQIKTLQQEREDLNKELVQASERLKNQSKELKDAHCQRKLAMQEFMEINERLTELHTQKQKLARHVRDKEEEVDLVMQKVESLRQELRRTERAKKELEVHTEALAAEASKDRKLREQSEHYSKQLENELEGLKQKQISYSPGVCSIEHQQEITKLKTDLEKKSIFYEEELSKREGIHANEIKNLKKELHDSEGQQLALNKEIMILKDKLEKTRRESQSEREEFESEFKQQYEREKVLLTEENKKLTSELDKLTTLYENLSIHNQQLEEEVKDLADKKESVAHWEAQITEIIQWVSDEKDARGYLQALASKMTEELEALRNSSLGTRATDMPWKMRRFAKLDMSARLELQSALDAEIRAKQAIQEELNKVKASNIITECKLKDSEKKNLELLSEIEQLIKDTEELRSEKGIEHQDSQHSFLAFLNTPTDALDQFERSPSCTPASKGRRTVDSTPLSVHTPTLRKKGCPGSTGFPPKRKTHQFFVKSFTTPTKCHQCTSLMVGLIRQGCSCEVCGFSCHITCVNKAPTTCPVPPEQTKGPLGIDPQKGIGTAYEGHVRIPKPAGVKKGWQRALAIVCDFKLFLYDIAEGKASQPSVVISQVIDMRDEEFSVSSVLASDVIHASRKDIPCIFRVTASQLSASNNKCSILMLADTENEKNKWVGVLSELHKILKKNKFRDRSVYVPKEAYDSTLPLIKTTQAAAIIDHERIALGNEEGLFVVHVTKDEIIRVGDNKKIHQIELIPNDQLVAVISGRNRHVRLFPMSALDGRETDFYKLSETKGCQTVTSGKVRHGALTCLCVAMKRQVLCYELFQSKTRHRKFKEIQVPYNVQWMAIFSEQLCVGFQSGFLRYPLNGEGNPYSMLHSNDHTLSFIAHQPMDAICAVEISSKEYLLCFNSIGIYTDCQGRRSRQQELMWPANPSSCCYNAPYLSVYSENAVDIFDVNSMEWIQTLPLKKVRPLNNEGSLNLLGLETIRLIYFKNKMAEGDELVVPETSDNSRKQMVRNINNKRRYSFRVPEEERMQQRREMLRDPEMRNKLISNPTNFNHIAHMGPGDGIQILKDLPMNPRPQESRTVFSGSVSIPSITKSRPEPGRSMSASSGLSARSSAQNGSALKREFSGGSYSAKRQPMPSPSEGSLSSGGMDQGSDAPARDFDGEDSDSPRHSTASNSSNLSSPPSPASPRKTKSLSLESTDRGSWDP

[13] = target: Serine/threonine-protein kinase 3 (Homo sapiens, UniProt Q13188); assay: Inhibition of recombinant human MST2 (2 to end residues) using myelin basic protein as substrate measured after 40 mins in presence of [gamma33P]ATP by radiometric scintillation counting analysis
[14] = target: PAS domain-containing serine/threonine-protein kinase (Homo sapiens, UniProt Q96RG2); assay: Inhibition of recombinant human PASK (995 to end residues) using KKLNRTLSFAEPG as substrate measured after 40 mins in presence of [gamma33P]ATP by radiometric scintillation counting analysis
[15] = target: Tyrosine-protein kinase HCK (Homo sapiens, UniProt P08631); assay: Inhibition of human recombinant activated HCK (230 to 497 residues) using GGMEDIYFEFMGG as substrate after 40 mins by [gamma-33ATP] radiometric assay
[16] = target: Tyrosine-protein kinase JAK1 (Homo sapiens, UniProt P23458); assay: Inhibition of human recombinant JAK1 (866 to end residues) using GEEPLYWSFPAKK as substrate after 40 mins by [gamma-33ATP] by radiometric scintillation counting analysis
[17] = target: Serine/threonine-protein kinase 10 (Homo sapiens, UniProt O94804); assay: Inhibition of recombinant human LOK (1 to 348 residues) using RLGRDKYKTLRQI as substrate after 40 mins in presence of [gamma-33ATP] by radiometric scintillation counting analysis
[18] = target: Tyrosine-protein kinase Lyn (Homo sapiens, UniProt P07948); assay: Inhibition of recombinant full length human Lyn using poly(Glu, Tyr) 4:1 as substrate after 40 mins in presence of [gamma-33ATP] by radiometric scintillation counting analysis
[19] = target: MAP/microtubule affinity-regulating kinase 3 (Homo sapiens, UniProt P27448); assay: Inhibition of recombinant full length human MARK3 using KKKVSRSGLYRSP as substrate incubated for 40 mins in presence of [gamma-33ATP by radiometric scintillation counting analysis
[20] = target: Mitogen-activated protein kinase kinase kinase 2 (Homo sapiens, UniProt Q9Y2U5); assay: Inhibition of recombinant full length human MEKK2 using myelin basic protein as substrate incubated for 40 mins in presence of [gamma-33ATP by radiometric scintillation counting analysis
Sequence of Mitogen-activated protein kinase kinase kinase 2 (Q9Y2U5 whole entry): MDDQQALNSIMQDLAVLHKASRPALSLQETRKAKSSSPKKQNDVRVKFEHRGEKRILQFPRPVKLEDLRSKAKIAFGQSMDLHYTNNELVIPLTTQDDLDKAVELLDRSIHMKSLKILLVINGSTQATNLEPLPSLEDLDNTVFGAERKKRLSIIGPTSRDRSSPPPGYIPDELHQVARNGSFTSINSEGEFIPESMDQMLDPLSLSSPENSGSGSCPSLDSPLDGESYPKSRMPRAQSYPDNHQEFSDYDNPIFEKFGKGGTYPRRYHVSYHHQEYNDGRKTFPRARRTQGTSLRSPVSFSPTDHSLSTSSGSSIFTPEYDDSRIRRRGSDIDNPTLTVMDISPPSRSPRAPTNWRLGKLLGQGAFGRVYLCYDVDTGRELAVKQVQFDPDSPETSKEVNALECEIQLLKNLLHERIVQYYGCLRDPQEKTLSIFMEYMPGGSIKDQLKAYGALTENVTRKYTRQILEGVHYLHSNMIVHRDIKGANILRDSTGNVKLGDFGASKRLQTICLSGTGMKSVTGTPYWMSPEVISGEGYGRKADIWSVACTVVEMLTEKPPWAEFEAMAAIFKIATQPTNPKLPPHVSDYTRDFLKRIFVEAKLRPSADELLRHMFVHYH

[21] = target: Serine/threonine-protein kinase N2 (Homo sapiens, UniProt Q16513); assay: Inhibition of recombinant human PRK2 (501 to end residues) using AKRRRLSSLRA as substrate incubated for 40 mins in presence of [gamma33P]ATP by radiometric scintillation counting analysis
Sequence of Serine/threonine-protein kinase N2 (Q16513 whole entry): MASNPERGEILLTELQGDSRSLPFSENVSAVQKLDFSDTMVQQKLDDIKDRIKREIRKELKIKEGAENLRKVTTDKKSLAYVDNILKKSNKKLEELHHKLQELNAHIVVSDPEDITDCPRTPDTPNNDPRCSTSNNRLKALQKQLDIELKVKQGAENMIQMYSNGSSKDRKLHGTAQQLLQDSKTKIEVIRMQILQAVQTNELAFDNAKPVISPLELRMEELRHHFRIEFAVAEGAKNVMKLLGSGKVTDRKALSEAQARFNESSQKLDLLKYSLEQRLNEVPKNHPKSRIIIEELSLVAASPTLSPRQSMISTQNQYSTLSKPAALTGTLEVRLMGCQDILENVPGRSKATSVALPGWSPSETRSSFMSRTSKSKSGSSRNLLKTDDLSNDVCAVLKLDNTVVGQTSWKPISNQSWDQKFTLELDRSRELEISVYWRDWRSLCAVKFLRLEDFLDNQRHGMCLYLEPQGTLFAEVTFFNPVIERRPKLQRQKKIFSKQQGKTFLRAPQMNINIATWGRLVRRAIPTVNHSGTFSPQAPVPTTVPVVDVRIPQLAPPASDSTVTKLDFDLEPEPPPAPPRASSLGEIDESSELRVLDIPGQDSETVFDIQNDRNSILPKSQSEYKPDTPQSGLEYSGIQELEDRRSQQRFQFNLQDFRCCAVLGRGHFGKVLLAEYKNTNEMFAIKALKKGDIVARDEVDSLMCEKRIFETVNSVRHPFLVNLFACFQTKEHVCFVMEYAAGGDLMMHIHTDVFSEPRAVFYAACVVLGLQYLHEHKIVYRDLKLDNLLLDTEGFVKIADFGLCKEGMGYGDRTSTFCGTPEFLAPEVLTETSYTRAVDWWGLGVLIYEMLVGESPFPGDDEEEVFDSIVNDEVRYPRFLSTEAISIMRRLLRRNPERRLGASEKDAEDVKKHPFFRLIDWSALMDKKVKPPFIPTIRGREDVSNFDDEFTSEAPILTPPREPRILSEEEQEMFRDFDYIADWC

[22] = target: Tyrosine-protein kinase receptor TYRO3 (Homo sapiens, UniProt Q06418); assay: Inhibition of recombinant human RSE (451 to end residues) using KVEKIGEGTYGVV as substrate incubated for 40 mins in presence of [gamma33P]ATP by radiometric scintillation counting analysis
Sequence of Tyrosine-protein kinase receptor TYRO3 (Q06418 whole entry): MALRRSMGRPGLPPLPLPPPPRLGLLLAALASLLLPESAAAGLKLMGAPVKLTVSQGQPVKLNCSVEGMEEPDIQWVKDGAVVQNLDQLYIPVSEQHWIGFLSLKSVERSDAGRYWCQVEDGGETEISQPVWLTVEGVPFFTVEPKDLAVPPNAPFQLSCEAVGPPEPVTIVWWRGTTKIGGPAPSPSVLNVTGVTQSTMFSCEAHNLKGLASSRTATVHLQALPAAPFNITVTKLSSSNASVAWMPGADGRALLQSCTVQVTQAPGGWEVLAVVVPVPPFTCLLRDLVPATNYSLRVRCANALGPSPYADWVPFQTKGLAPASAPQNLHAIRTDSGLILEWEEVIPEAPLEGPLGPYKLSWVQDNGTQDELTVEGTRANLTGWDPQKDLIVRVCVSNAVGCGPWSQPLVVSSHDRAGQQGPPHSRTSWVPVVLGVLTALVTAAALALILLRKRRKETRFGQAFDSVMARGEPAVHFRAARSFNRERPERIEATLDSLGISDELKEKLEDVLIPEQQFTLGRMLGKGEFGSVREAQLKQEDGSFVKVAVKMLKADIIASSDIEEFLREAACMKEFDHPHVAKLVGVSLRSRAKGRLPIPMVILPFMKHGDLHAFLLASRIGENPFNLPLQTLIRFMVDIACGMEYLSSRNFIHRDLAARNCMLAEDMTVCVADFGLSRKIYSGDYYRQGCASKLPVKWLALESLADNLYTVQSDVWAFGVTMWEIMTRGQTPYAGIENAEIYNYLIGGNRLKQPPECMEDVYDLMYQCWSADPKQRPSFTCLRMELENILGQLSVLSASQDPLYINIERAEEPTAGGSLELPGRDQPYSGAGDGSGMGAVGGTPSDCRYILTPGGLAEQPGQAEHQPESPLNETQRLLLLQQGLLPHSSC

[23] = target: Mitogen-activated protein kinase 14 (Homo sapiens, UniProt Q16539, T106M); assay: Inhibition of recombinant human full length SAPK2a T106M mutant using myelin basic protein as substrate incubated for 40 mins in presence of [gamma33P]ATP by radiometric scintillation counting analysis
[24] = target: Tribbles homolog 2 (Homo sapiens, UniProt Q92519); assay: Inhibition of recombinant full-length human TRB2 using RRRFRPASPLRGP as substrate incubated for 120 mins in presence of [gamma33P]ATP by radiometric scintillation counting analysis
Sequence of Tribbles homolog 2 (Q92519 whole entry): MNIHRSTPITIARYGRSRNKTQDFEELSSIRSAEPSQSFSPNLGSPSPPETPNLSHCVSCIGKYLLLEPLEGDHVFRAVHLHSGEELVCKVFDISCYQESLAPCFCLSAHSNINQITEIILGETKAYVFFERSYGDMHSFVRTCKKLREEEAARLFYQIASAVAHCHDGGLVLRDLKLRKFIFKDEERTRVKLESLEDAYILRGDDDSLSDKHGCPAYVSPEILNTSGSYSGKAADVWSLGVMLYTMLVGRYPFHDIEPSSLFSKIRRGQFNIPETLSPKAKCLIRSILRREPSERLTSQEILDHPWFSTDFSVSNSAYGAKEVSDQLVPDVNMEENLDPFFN

[25] = target: Tyrosine-protein kinase TXK (Homo sapiens, UniProt P42681); assay: Inhibition of recombinant human Txk (256 to end residues) using GEEPLYWSFPAKK as substrate incubated for 40 mins in presence of [gamma33P]ATP by radiometric scintillation counting analysis

Measured: IC50

CN(C)c1ccc(C(=O)Nc2cccc(NC(=O)COc3ccc4c(=O)ccoc4c3)c2)cc1
> 10 µM: [1] | [2] | [3] | [4] | [5] | [6] | [7] | [8] | [9] | [10] | [11] | [12] | [13] | [14] | [15] | [16] | [17] | [18] | [19] | [20] | [21] | [22] | [23] | [24] | [25]
